Assays:
[1] = target: T1, GST-tagged KRAS G12D (2-169) (Homo sapiens, UniProt P01116, G12D); assay: Nucleotide exchange assay (NEA), HTRF of SOS-mediated GTP-DY-647P1 binding; type: biochemical; details: 5 nM GST-KRAS G12D, 20 nM SOScat, 150 nM GTP; compound 1 h at RT
T1 construct: GST-tagged KRAS^G12D (2-169, Reaction Biology, MSC-11-539); purchased Reaction Biology MSC-11-539 (KRAS G12D); MSC-11-502 (SOS1cat)
Outline: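 After 1 h RT preincubation of compound with KRAS, SOS1cat (20 nM final) and fluorescent GTP analog (150 nM) were added to 5 nM KRAS; HTRF (anti-GST Tb donor) followed at RT for up to 90 min. % inhibition relative to DMSO and no-SOS1 blank, 4-parameter curve fit.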

KRAS G12D/RAF1 = target: T2, KRAS G12D/RAF1 (Homo sapiens, UniProt P01116, G12D); assay: Protein-protein interaction (PPI) HTRF assay KRAS G12D/RAF1; type: binding; details: KRAS G12D/RAF1, GppNHp-loaded KRAS; 30 minutes pre-incubation
T2 construct: KRAS (1-169) proteins were expressed in E. coli at 18° C; His6-MBP (N, cleaved yes); made in house; host or cells: E. coli
T2 sequence (P01116 1-169 isoform P01116-2 G12D): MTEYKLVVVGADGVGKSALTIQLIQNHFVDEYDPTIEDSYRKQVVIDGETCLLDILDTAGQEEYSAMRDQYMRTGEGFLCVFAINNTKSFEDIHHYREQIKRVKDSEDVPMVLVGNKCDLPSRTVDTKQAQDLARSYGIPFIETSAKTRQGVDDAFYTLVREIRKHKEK
Procedure: Biotinylated KRAS wt and KRAS G12DNV proteins were expressed and purified in conditions similar to those previously reported (Tran, et al., 2021) (Zhang, et al., 2020). Briefly, KRAS (1-169) proteins were expressed in E. coli at 18° C. with an upstream TEV cleavage site (ENLFYQS) followed an Avi tag sequence ([…]). KIRAS expression constructs contained both a His6 and maltose-binding protein (MBP) tags at the N-terminus for Ni-NTA column purification prior to overnight TEV cleavage and MBP column purification. The avi-tagged NRAS expression construct contained both a His6 tag and SUMO cleavage sige at the N-terminus for Ni-NTA column purification followed by His-ULP1 digestion overnight. All avi-tagged RAS proteins were dialyzed into buffer containing ATP, biotin, and BirA followed by purification over a second Ni-NTA column and then run over a size exclusion HiLoad™ 26/600 Superdex™ column in 20 mM HEPES, pH 7.5, 300 mM NaCl, 5 mM MgCl2, and 1 mM TCEP. Fractions containing the protein of interest were pooled, concentrated, and confirmed by intact mass spectrometry. To prepare ‘GTP’ loaded KRAS and NRAS, biotinylated KRAS or NRAS was nucleotide exchanged from GDP-bound protein to GppNHp-bound (Jena Biosciences, NU-401-50) protein in the presence of alkaline phosphatase and excess GppNHp as previously described and the resulting nucleotide content was confirmed by HPLC reverse phase analytical chromatography (Donohue, et al., 2019) (Tran, et al., 2021).
His-tagged RAF1 (52-131) was similarly expressed in E. coli at 18° C. overnight with an upstream TEV cleavage site. His-tagged RAF1 expression construct contained both a His6 and MBP tags at the N-terminus for Ni-NTA column purification followed by MBP-tagged TEV digestion overnight. RAF1 protein samples were further purified over a MBP column followed by a Ni-NTA column and a second MBP column. The fractions containing the protein of interest were pooled, concentrated, and further purified over a HiLoad™ 16/600 Superdex™ 75 pg size exclusion column into 20 mM HEPES, pH8.0, 200 mM NaCl, 5 mM TCEP.
When RAS proteins are in the active GTP-bound conformation, they bind the effector protein RAF1 at the N-terminus Ras-binding domain (RBD, residues 52-131) (Tran, et al., 2021). Homogenous time resolved fluorescence (HTRF) was used to monitor the interaction between wt or mutant KRAS and RAF1 or wt NRAS and RAFT. Compounds were assayed in the presence of KRAS G12D/V and RAF1 versus wt KRAS to assess activity against mutant and w.t. KRAS. Similarly, compounds were then assayed in the presence of w.t. NRAS and RAF1 to assess RAS isoform selectivity. In all assay formats, His-tagged RAF1 protein was incubated with the HTRF donor, anti-6His Tb Cryptate gold (Cisbio 61DB10RDF), and biotinylated RAS proteins were incubated with the HTRF acceptor, streptavidin-d2 (CisBio 610SADLA). The intensity of the fluorescence signal emitted is proportional to binding between the two proteins. The donor solution was prepared by mixing 16 nM His-tagged RAF1 in protein dilution buffer with 1:100 anti-6His Tb cryptate in PPI-Terbium detection buffer. 16 nM biotinylated RAS protein was diluted into protein dilution buffer (50 mM Tris-HCl pH 7.5, 150 mM NaCl, 0.1 mM MgCl2, 1 mM TCEP, 0.005% Tween20) and mixed with 1:2000 Streptavidin-d2 diluted in PPI-Terbium detection buffer (CisBio 61DB10RDF). 50× compound in DMSO was mixed with 16 nM KRAS-acceptor solution and incubated for 30 minutes at room temperature. After compound pre-incubation with KRAS, the RAF1 donor solution was added to the KRAS-acceptor solution and incubated for 1 hour at room temperature. The fluorescence signal emitted was monitored at 665 nm and 615 nm using an Envision multimode plate reader. The HTRF ratio (665/615) was calculated and normalized to 0% inhibition in the absence of compound and 100% inhibition in the presence of untagged RAF1 protein. […]

T1 sequence (P01116 2-169 isoform P01116-2 G12D): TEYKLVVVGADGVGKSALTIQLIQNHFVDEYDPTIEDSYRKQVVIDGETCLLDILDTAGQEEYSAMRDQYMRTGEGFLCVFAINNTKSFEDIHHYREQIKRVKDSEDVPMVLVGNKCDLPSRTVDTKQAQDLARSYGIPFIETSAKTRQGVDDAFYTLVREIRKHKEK

Row | SMILES | IC50 [1] | IC50 (KRAS G12D/RAF1)
1 | Cc1noc(-c2cc3n(n2)CCCN(c2nc(OC[C@@]45CCCN4C[C@H](F)C5)nc4c2CN(C)[C@@]2(CCc5cccc(F)c52)C4)C3)n1 [Compound 73, 5-[5-[(7S)-7′-fluoro-2-[[(2R,8S)-2-fluoro-1,2,3,5,6,7-hexahydropyrrolizin-8-yl]methoxy]-6-methyl-spiro[5,8-dihydropyrido[4,3-d]pyrimidine-7,1′-indane]-4-yl]-4,6,7,8-tetrahydropyrazolo[1,5-a][1,4]diazepin-2-yl]-3-methyl-1,2,4-oxadiazole] | 10 to 100 nM | > 100 µM
2 | Cc1noc(-c2cc3n(n2)CCCN(c2nc(OC[C@@]45CCCN4C[C@H](F)C5)nc4c2CN(C)[C@@]2(CCCc5ccccc52)C4)C3)n1 [Compound 74, 5-[5-[(7S)-2-[[(2R,8S)-2-fluoro-1,2,3,5,6,7-hexahydropyrrolizin-8-yl]methoxy]-6-methyl-spiro[5,8-dihydropyrido[4,3-d]pyrimidine-7,1′-tetralin]-4-yl]-4,6,7,8-tetrahydropyrazolo[1,5-a][1,4]diazepin-2-yl]-3-methyl-1,2,4-oxadiazole] | 10 to 100 nM | > 100 µM
3 | CN(C)C(=O)c1nn2c(c1C#N)CN(c1nc(OC[C@@]34CCCN3C[C@H](F)C4)nc3c1CN(C)[C@@]1(CCc4cccc(F)c41)C3)CCC2 [Compound 76, 3-cyano-5-[(7S)-7′-fluoro-2-[[(2R,8S)-2-fluoro-1,2,3,5,6,7-hexahydropyrrolizin-8-yl]methoxy]-6-methyl-spiro[5,8-dihydropyrido[4,3-d]pyrimidine-7,1′-indane]-4-yl]-N,N-dimethyl-4,6,7,8-tetrahydropyrazolo[1,5-a][1,4]diazepine-2-carboxamide] | < 10 nM | 10 to 100 µM
4 | CN(C)C(=O)c1nn2c(c1C#N)CN(c1nc(OC[C@@]34CCCN3C[C@H](F)C4)nc3c1CN(C)[C@@]1(CCCc4ccccc41)C3)CCC2 [Compound 77, 3-cyano-5-[(7S)-2-[[(2R,8S)-2-fluoro-1,2,3,5,6,7-hexahydropyrrolizin-8-yl]methoxy]-6-methyl-spiro[5,8-dihydropyrido[4,3-d]pyrimidine-7,1′-tetralin]-4-yl]-N,N-dimethyl-4,6,7,8-tetrahydropyrazolo[1,5-a][1,4]diazepine-2-carboxamide] | < 10 nM | 10 to 100 µM
5 | CN1Cc2c(nc(OC[C@@]34CCCN3C[C@H](F)C4)nc2N2CCCn3nc(C(=O)O)c(Cl)c3C2)C[C@]12CCCc1ccccc12 [Compound 78, 3-chloro-5-[(7S)-2-[[(2R,8S)-2-fluoro-1,2,3,5,6,7-hexahydropyrrolizin-8-yl]methoxy]-6-methyl-spiro[5,8-dihydropyrido[4,3-d]pyrimidine-7,1′-tetralin]-4-yl]-4,6,7,8-tetrahydropyrazolo[1,5-a][1,4]diazepine-2-carboxylic acid] | < 10 nM | 10 to 100 µM
6 | CN1Cc2c(nc(OCC3(CN4CCOCC4)CC3)nc2N2C[C@H]3CC[C@@H](C2)N3)C[C@]12CCCc1ccccc12 [Compound 80, 4-[[1-[[(7S)-6-methyl-4-[(1R,5S)-3,8-diazabicyclo[3.2.1]octan-3-yl]spiro[5,8-dihydropyrido[4,3-d]pyrimidine-7,1′-tetralin]-2-yl]oxymethyl]cyclopropyl]methyl]morpholine] | 10 to 100 nM | 10 to 100 µM
7 | CN1Cc2c(nc(OC[C@@]34CCCN3C[C@H](F)C4)nc2N2CCCn3nc(-c4nc5ccccc5n4C)cc3C2)C[C@]12CCCc1ccccc12 [Compound 82, (7S)-2-[[(2R,8S)-2-fluoro-1,2,3,5,6,7-hexahydropyrrolizin-8-yl]methoxy]-6-methyl-4-[2-(1-methylbenzimidazol-2-yl)-4,6,7,8-tetrahydropyrazolo[1,5-a][1,4]diazepin-5-yl]spiro[5,8-dihydropyrido[4,3-d]pyrimidine-7,1′-tetralin]] | 10 to 100 nM | > 100 µM
8 | CN1Cc2c(nc(OC[C@@]34CCCN3C[C@H](F)C4)nc2N2CCCn3nc(-c4nc5c(F)cccc5n4C)cc3C2)C[C@]12CCCc1ccccc12 [Compound 83, (7S)-2-[[(2R,8S)-2-fluoro-1,2,3,5,6,7-hexahydropyrrolizin-8-yl]methoxy]-4-[2-(4-fluoro-1-methyl-benzimidazol-2-yl)-4,6,7,8-tetrahydropyrazolo[1,5-a][1,4]diazepin-5-yl]-6-methyl-spiro[5,8-dihydropyrido[4,3-d]pyrimidine-7,1′-tetralin]] | 10 to 100 nM | > 100 µM
9 | CN1Cc2c(nc(OC[C@@]34CCCN3C[C@H](F)C4)nc2N2C[C@H]3CC[C@@H](C2)[C@@H]3N)C[C@]12CCCc1ccccc12 [Compound 85, (1R,5S)-3-[(7S)-2-[[(2R,8S)-2-fluoro-1,2,3,5,6,7-hexahydropyrrolizin-8-yl]methoxy]-6-methyl-spiro[5,8-dihydropyrido[4,3-d]pyrimidine-7,1′-tetralin]-4-yl]-3-azabicyclo[3.2.1]octan-8-amine] | 1000 to 20000 nM | > 100 µM
10 | CN1Cc2c(nc(OCC34CCCN3CC(F)C4)nc2N2CC3CCC(C2)C3NC#N)CC12CCCc1ccccc12 [Compound 86, [(1R,5S)-3-[(7S)-2-[[(2R,8S)-2-fluoro-1,2,3,5,6,7-hexahydropyrrolizin-8-yl]methoxy]-6-methyl-spiro[5,8-dihydropyrido[4,3-d]pyrimidine-7,1′-tetralin]-4-yl]-3-azabicyclo[3.2.1]octan-8-yl]cyanamide] | < 10 nM | > 100 µM
11 | CN1Cc2c(nc(OC[C@@]34CCCN3C[C@H](F)C4)nc2N2CCCn3nc(-c4ccccn4)cc3C2)C[C@]12CCCc1ccccc12 [Compound 88, (7S)-2-[[(2R,8S)-2-fluoro-1,2,3,5,6,7-hexahydropyrrolizin-8-yl]methoxy]-6-methyl-4-[2-(2-pyridyl)-4,6,7,8-tetrahydropyrazolo[1,5-a][1,4]diazepin-5-yl]spiro[5,8-dihydropyrido[4,3-d]pyrimidine-7,1′-tetralin]] | 10 to 100 nM | > 100 µM
12 | COc1cccc(-c2cc3n(n2)CCCN(c2nc(OC[C@@]45CCCN4C[C@H](F)C5)nc4c2CN(C)[C@@]2(CCCc5ccccc52)C4)C3)n1 [Compound 89, (7S)-2-[[(2R,8S)-2-fluoro-1,2,3,5,6,7-hexahydropyrrolizin-8-yl]methoxy]-4-[2-(6-methoxy-2-pyridyl)-4,6,7,8-tetrahydropyrazolo[1,5-a][1,4]diazepin-5-yl]-6-methyl-spiro[5,8-dihydropyrido[4,3-d]pyrimidine-7,1′-tetralin]] | 100 to 1000 nM | > 100 µM

— patent US11912723B2, “KRAS modulators and uses thereof” (Quanta Therapeutics, Inc., priority 2022, dated 2024)
